Measurements taken from patent US20240391921A1, “CRYSTAL FORM OF IMIDAZOLINONE DERIVATIVE” (CHENGDU BAIYU PHARMACEUTICAL CO., LTD., priority 2021, published 2024).

What was measured:
[1] = Pharmacokinetic assay in ICR mice; type: in vivo; settings: male ICR mice, iv 1 mg/kg and po 10 mg/kg, plasma by LC/MS/MS
Description: ICR mice (purchased from Beijing Viton Lihua Laboratory Animal Technology Co.)
2.2 Experimental procedure • (1) Healthy male ICR mice (18-22 g) were prepared, with 18 mice for each compound which were divided into 2 groups (iv and po groups) of 9 mice each, and 3 mice were selected for blood collection at each time point. • (2) After fasting (free water intake) overnight, the compound of the invention was solubilized (or formed into a suspension) with 5% DMSO, 95% 30% HP-β-CD (v: v) as solvent. The compound was administered via the tail vein (iv, 1 mg/kg) and by gavage (po, 10 mg/kg), respectively. • (3) In the iv group, 0.1 mL of blood was collected from the submandibular vein at 5 min, 15 min, 0.5 h, 1 h, 2 h, 4 h, 8 h, 12 h, and 24 h, respectively, and the blood was anticoagulated with EDTA-K2, and then centrifuged at 4° C. for 5 min to separate the plasma, which was stored at-20° C. before measurement. • (4) In the po group, 0.1 mL of blood was collected from the submandibular vein before and after administration at 15 min, 0.5h, 1h, 2h, 4h, 6h, 8h, 12h and 24h respectively, and processed in the same manner as in the iv group. • (5) The concentration of the compound of the present invention in plasma was determined by a LC/MS/MS method. • (6) The results were calculated and fitted using Analyst 1.6 from AB.

[2] = Dynamic vapor sorption (DVS) test; type: physicochemical
Description: The crystalline form I of Compound A prepared in Example 3 was subjected to dynamic vapor sorption test, and the dynamic vapor sorption (DVS) curves were acquired on DVS Intrinsic of SMS (Surface Measurement Systems). The relative humidity at 25° C. was corrected with the deliquescence points of LiCl, Mg (NO3)2, and KCl.

[3] = Solid-state stability (XRPD for physical, HPLC purity for chemical stability); type: physicochemical

Structure (SMILES)	pharmacokinetic properties [1]	change in sample weight (DVS) ([2]; 0% RH-95% RH-0% RH at 25° C.)	hygroscopicity (DVS) ([2]; 0% RH-95% RH-0% RH at 25° C.)	transformation of crystalline form before and after DVS (XRPD comparison) ([2]; XRPD before and after DVS)	solid-state stability: crystalline transformation (XRPD) and purity (HPLC) ([3]; 25° C./60% RH/open, 1 week)	solid-state stability: crystalline transformation (XRPD) and purity (HPLC) ([3]; 40° C./75% RH/open, 1 week)	solid-state stability: crystalline transformation (XRPD) and purity (HPLC) ([3]; 60° C./close, 1 day)	solid-state stability: crystalline transformation (XRPD) and purity (HPLC) ([3]; 80° C./close, 1 day)
CCn1c(=O)n(C2CCOCC2)c2nc(Nc3cc(F)c(C(N)=O)cc3C)ncc21 [Compound A, 4-((7-ethyl-8-oxo-9-(tetrahydro-2H-pyran-4-yl)-8,9-dihydro-7H-purin-2-yl)amino)-2-fluoro-5-methylbenzamide]	good pharmacokinetic properties	–	–	–	–	–	–	–
CCn1c(=O)n(C2CCOCC2)c2nc(Nc3cc(F)c(C(N)=O)cc3C)ncc21 [crystalline form I, 4-((7-ethyl-8-oxo-9-(tetrahydro-2H-pyran-4-yl)-8,9-dihydro-7H-purin-2-yl)amino)-2-fluoro-5-methylbenzamide]	–	less than 0.2%	free or almost free of hygroscopicity	no transformation of crystalline form occurred	no crystalline transformation or decrease in purity was observed	no crystalline transformation or decrease in purity was observed	no crystalline transformation or decrease in purity was observed	no crystalline transformation or decrease in purity was observed
